Results from US11903955B2, “Methods of treating heart failure with reduced ejection fraction” (ASTRAZENECA AB, priority 2019, dated 2024).
Where “and” joins values, the source holds several entries; their conditions need not be identical. Identical values can stand only once. Like-named read-outs stand apart in the source and are kept apart here. Marks after values point to notes of the source that are not given here.

Experiments:
patients with HFrEF = conditions: for Mild hyperkalemia (>5.5 mmol/L), HR (95% CI) / Moderate/Severe hyperkalemia (>6.0 mmol/L), HR (95% CI): dapagliflozin vs placebo; for Mild hyperkalemia (>5.5 mmol/L), No. events/patients: excluding baseline K+ > 5.5; for Moderate/Severe hyperkalemia (>6.0 mmol/L), No. events/patients: excluding baseline K+ > 6.0
Excerpt: Hyperkalemia often limits the use of mineralocorticoid receptor antagonists (MRAs) in patients with heart failure and reduced ejection fraction (HFrEF), denying these patients a life-saving therapy.

[1] = test system: patients with chronic heart failure with reduced ejection fraction (LVEF ≤40%); conditions: for Change in KCCQ total symptom score at 8 mo., Win ratio (95% CI): >1 indicates superiority; for KCCQ-TSS increase, points more with dapagliflozin compared to placebo: baseline to 8 months
Protocol: KCCQ total symptom score was analyzed as a composite rank-based endpoint, incorporating patient vital status at 8 months along with change in score from baseline to 8 months in surviving patients, using the rank analysis of covariance method, with a corresponding win ratio used to estimate the magnitude of treatment effect.^17 The consistency of the treatment effect among 14 prespecified subgroups were assessed.
The KCCQ was completed electronically by patients, without assistance by site study staff (as validated), and evaluated at randomization, 4-months, and 8-months. The KCCQ is a 23-item, self-administered disease-specific instrument that quantifies symptoms (frequency, severity and recent change), physical function, quality of life, and social function over the prior 2 weeks. In the KCCQ, the total symptom score (TSS) quantifies the symptom frequency and severity, KCCQ clinical summary score (KCCQ-CSS) includes the physical function and symptoms domains, and KCCQ overall summary score (OSS) is derived from the following domains (total symptom score, physical function, quality of life and social function). […] Scores are transformed to a range of 0-100, in which higher scores reflect better health status.
In this study, patients were divided into three subgroups, based on the tertiles of baseline KCCQ-TSS (which was the KCCQ domain prespecified as the secondary endpoint): (i) ≤65.6, (ii) 65.7-87.5, (iii) >87.5 points.
The differences between treatment groups in mean KCCQ-TSS, CSS, and OSS at 4 months and 8 months in surviving patients were analyzed, using a mixed model for repeated measurements and estimated the least-squares mean differences between treatment groups adjusted for baseline values. Responder analyses were conducted examining proportions of patients with a deterioration, and clinically important improvements in KCCQ at 8 months. Established, clinically meaningful thresholds for KCCQ (≥5 point (at least small), ≥10 point (moderate), and ≥15 point (large) change) were used for all responder analyses across the KCCQ domains.
Odds ratios to estimate differences between treatment groups, and their corresponding 95% confidence intervals and 2-sided p-values were estimated from logistic regression models (which included treatment group, stratification variable (T2D at randomization) and baseline KCCQ values); the models used imputed data accounting for missing KCCQ values and estimates were combined using Rubin's rules.

[2] = test system: patients with chronic heart failure with reduced ejection fraction (LVEF ≤40%); conditions: for NT-proBNP, between-treatment difference: baseline to 8 months; for decrease in NT-proBNP: between baseline and 8 months
Protocol: Data from all randomly assigned patients were included in the analyses of the primary and secondary outcomes, according to the intention-to-treat principle. Baseline characteristics were summarized as means and standard deviations, medians and inter-quartile ranges, or percentages. Longitudinal measures, such as glycated hemoglobin level (HbA1c) and body weight, were analyzed using mixed model for repeated measurements, and the least-squares mean differences between treatment groups were estimated, together with 95% confidence intervals. Time-to-event data were evaluated with the use of Kaplan-Meier estimates and Cox proportional hazards models, stratified by diabetes status, with history of heart failure hospitalization and treatment as fixed-effect factors (for the renal endpoint, baseline eGFR was included instead of history of heart failure hospitalization); hazard ratios, 95% confidence intervals, and two-sided P values were calculated with the use of the Cox models.

[3] = test system: patients with HFrEF without diabetes; conditions: individuals without diabetes at baseline
Excerpt: FIG. 17 describes incidence of new onset T2D (HbA1c ≥6.5%) measured at 2 consecutive study visits post-randomization or investigator-reported new T2D vs placebo patients with previously undiagnosed diabetes, i.e., HbA1c ≥6.5%
Patients also had measurement of a glycated hemoglobin (HbA1c) level in a central laboratory at visit 1 and again at visit 2 (the randomization visit), which occurred 14 (±7) days later. For this prespecified subgroup analysis, patients were categorized as having diabetes if there was a history of diabetes or the glycated hemoglobin was at least 6.5% (≥48 mmol/mol) at both visits 1 and 2. Patients with a glycated hemoglobin level <5.7% ([…]) at both visits 1 and 2 were considered to have a normal glycated hemoglobin. For the purposes of this study, patients with a glycated hemoglobin ≥5.7% and <6.5% were considered to have pre-diabetes. Id.

[4] = dapagliflozin vs placebo, at 8 months
[5] = individuals with diabetes, dapagliflozin vs placebo
[6] = individuals without diabetes, dapagliflozin vs placebo
[7] = baseline to 8 month, dapagliflozin vs placebo

CCOc1ccc(Cc2cc([C@@H]3O[C@H](CO)[C@@H](O)[C@H](O)[C@H]3O)ccc2Cl)cc1 [Dapagliflozin, dapagliflozin]
Mild hyperkalemia (>5.5 mmol/L), rate per 100 py (patients with HFrEF; All patients): 8.1 per 100 py
Moderate/Severe hyperkalemia (>6.0 mmol/L), rate per 100 py (patients with HFrEF; All patients): 1.0 per 100 py
Mild hyperkalemia (>5.5 mmol/L), HR (95% CI) (patients with HFrEF; All patients): 0.93 (0.78-1.11)
Moderate/Severe hyperkalemia (>6.0 mmol/L), HR (95% CI) (patients with HFrEF; All patients): 0.64 (0.42-0.99)
Mild hyperkalemia (>5.5 mmol/L), No. events/patients (patients with HFrEF; All patients): 243/2292
Moderate/Severe hyperkalemia (>6.0 mmol/L), No. events/patients (patients with HFrEF; All patients): 34/2358
Mild hyperkalemia (>5.5 mmol/L), rate per 100 py (patients with HFrEF; MRA treated at baseline): 8.6 per 100 py
Moderate/Severe hyperkalemia (>6.0 mmol/L), rate per 100 py (patients with HFrEF; MRA treated at baseline): 0.9 per 100 py
Mild hyperkalemia (>5.5 mmol/L), HR (95% CI) (patients with HFrEF; MRA treated at baseline): 0.86 (0.70-1.05)
Moderate/Severe hyperkalemia (>6.0 mmol/L), HR (95% CI) (patients with HFrEF; MRA treated at baseline): 0.50 (0.29-0.85)
Moderate/Severe hyperkalemia (>6.0 mmol/L), HR (95% CI) (patients with HFrEF; MRA treated at baseline, listed as dapagliflozin): 0.50 (0.29, 0.85)
Mild hyperkalemia (>5.5 mmol/L), No. events/patients (patients with HFrEF; MRA treated at baseline): 180/1632
Moderate/Severe hyperkalemia (>6.0 mmol/L), No. events/patients (patients with HFrEF; MRA treated at baseline): 21/1683
Mild hyperkalemia (>5.5 mmol/L), rate per 100 py (patients with HFrEF; No MRA at baseline): 7.1 per 100 py
Moderate/Severe hyperkalemia (>6.0 mmol/L), rate per 100 py (patients with HFrEF; No MRA at baseline): 1.4 per 100 py
Mild hyperkalemia (>5.5 mmol/L), HR (95% CI) (patients with HFrEF; No MRA at baseline): 1.20 (0.84-1.72)
Moderate/Severe hyperkalemia (>6.0 mmol/L), HR (95% CI) (patients with HFrEF; No MRA at baseline): 1.17 (0.52-2.62)
Mild hyperkalemia (>5.5 mmol/L), No. events/patients (patients with HFrEF; No MRA at baseline): 63/660
Moderate/Severe hyperkalemia (>6.0 mmol/L), No. events/patients (patients with HFrEF; No MRA at baseline): 13/675
Mild hyperkalemia, patients (%) (patients with HFrEF; patients treated with an MRA): 180 (11%) patients (%)
moderate/severe hyperkalemia, patients (%) (patients with HFrEF; patients treated with an MRA): 21 (1.2%) patients (%)
Change in KCCQ total symptom score at 8 mo. ([1]; No T2DM (N = 1298)): 5.4 ± 17.7
Change in KCCQ total symptom score at 8 mo. ([1]; T2DM (N = 1075)): 7.0 ± 19.7
KCCQ total symptom score, mean difference dapagliflozin vs placebo ([1]; all patients, at 8 months): 2.8 points
patients with deterioration (≥5 point decline) in KCCQ-TSS ([1]; all patients, at 8 months): 25% and 25.3%
patients with five or greater point (at least small) improvement in KCCQ-TSS ([1]; all patients, at 8 months): 58% and 58.3%
Change in KCCQ total symptom score at 8 mo. ([1]; all patients, baseline to month 8, mean ± SD): 6.1 ± 18.6 points
Change in KCCQ total symptom score at 8 mo. ([1]; all patients, baseline to month 8, mean ± SD, listed as dapagliflozin): 6.1±18.6 points
mean KCCQ-CSS, points higher than placebo ([1]; at 4 months): 1.8 points
mean KCCQ-OSS, points higher than placebo ([1]; at 4 months): 1.7 points
mean KCCQ-TSS, points higher than placebo ([1]; at 4 months): 1.9 points
mean KCCQ-CSS, points higher than placebo ([1]; at 8 months): 2.5 points
mean KCCQ-OSS, points higher than placebo ([1]; at 8 months): 2.3 points
number needed to treat (NNT) for at least small (≥5 point) improvement in KCCQ-TSS ([1]; at 8 months): 14 (10-23)
number needed to treat (NNT) for large (≥15 point) improvement in KCCQ-TSS ([1]; at 8 months): 18 (12-35)
number needed to treat (NNT) for moderate (≥10 point) improvement in KCCQ-TSS ([1]; at 8 months): 15 (11-25)
patients with large (≥15 point) improvement in KCCQ-TSS ([1]; at 8 months): 54.0%
patients with moderate (≥10 point) improvement in KCCQ-TSS ([1]; at 8 months): 54.5%
Change in KCCQ total symptom score at 8 mo., win-ratio (95% CI) ([1]; dapagliflozin vs placebo, No T2DM): 1.15 (1.05, 1.26)
Change in KCCQ total symptom score at 8 mo., win-ratio (95% CI) ([1]; dapagliflozin vs placebo, T2DM): 1.22 (1.11, 1.35)
Change in KCCQ total symptom score at 8 mo., Win ratio (95% CI) ([1]; dapagliflozin vs placebo, all patients): 1.18 (1.11-1.26)†
Change in KCCQ total symptom score at 8 mo., Win ratio (95% CI) ([1]; dapagliflozin vs placebo, all patients, listed as dapagliflozin): 1.18
odds ratio (95% CI) for large (≥15 point) improvement in KCCQ-TSS [1, 4]: 1.14 (1.07-1.22)
odds ratio (95% CI) for moderate (≥10 point) improvement in KCCQ-TSS [1, 4]: 1.15 (1.08-1.22)
odds ratio for deterioration (≥5 point decline) in KCCQ-TSS [1, 4]: 0.84
odds ratio for ≥5 point improvement in KCCQ-TSS [1, 4]: 1.15
patients with deterioration in KCCQ-TSS ([1]; individuals with diabetes): 24.5%
patients with ≥5-point improvement in KCCQ-TSS ([1]; individuals with diabetes): 58.9%
odds ratio for deterioration in KCCQ-TSS [1, 5]: 0.78 (0.71, 0.87)
odds ratio for ≥5-point improvement in KCCQ-TSS [1, 5]: 1.20 (1.09, 1.31)
patients with an increase of at least 5 points in KCCQ-TSS ([1]; individuals without diabetes): 57.7%
patients with significant deterioration in KCCQ-TSS ([1]; individuals without diabetes): 26.0%
odds ratio for increase of at least 5 points in KCCQ-TSS [1, 6]: 1.12 (95% CI 1.03, 1.22)
odds ratio for significant deterioration in KCCQ-TSS [1, 6]: 0.88 (0.81, 0.97)
KCCQ-TSS increase, points more with dapagliflozin compared to placebo ([1]; patients with diabetes): 3.5 (95% CI 1.6-5.4) points
KCCQ-TSS increase, points more with dapagliflozin compared to placebo ([1]; patients without diabetes): 2.2 (95% CI 0.7-3.7) points
Change in systolic BP ([2]; baseline to 8 month (Visit 6)): −1.92 ± 14.92 mmHg
Change in weight ([2]; baseline to 8 month (Visit 6)): -0.88 ± 3.86 kg
Change in HbA1c ([2]; baseline to 8 month (Visit 6), only patients with diabetes at baseline): −0.21 ± 1.14%
Systolic BP, between group difference (95% CI) [2, 7]: −1.41 (−2.31 to −0.52), p = 0.002 mmHg
Weight, between group difference (95% CI) [2, 7]: −0.98 (−1.22 to −0.74), p < 0.001 kg
HbA1c, between group difference (95% CI) ([2]; baseline to 8 month, dapagliflozin vs placebo, only patients with diabetes at baseline): −0.25 (−0.36 to −0.14), p < 0.001%
Change in potassium ([2]; in vivo): 0.07 ± 0.53
Potassium, between group difference (95% CI) ([2]; in vivo): −0.02 (−0.05 to 0.01), p = 0.298
NT-proBNP, between-treatment difference ([2]; participants with diabetes, dapagliflozin vs placebo): −333 (−562 to −104) pg/ml
decrease in NT-proBNP ([2]; participants with diabetes): 257 ± 2502 pg/mL
NT-proBNP, between-treatment difference ([2]; patients without diabetes, dapagliflozin vs placebo): −278 (−485 to −71) pg/ml
decrease in NT-proBNP ([2]; patients without diabetes): 144 ± 2286 pg/mL
new-onset diabetes, HR ([3]; dapagliflozin vs placebo (Cox)): 0.68
reduction of new-onset diabetes ([3]; vs placebo): 32%
